Reference: PMC10622577, “Structural basis for stabilisation of the RAD51 nucleoprotein filament by BRCA2” (Nature Communications, 2023)

Tested on: RAD51 D184A NPFs
Assay: SPR of TR2 binding to RAD51 D184A NPFs
Design: species or system human
Conditions: n = 3
Description: We investigated further the effect of the acidic patch mutations on TR2 binding using surface plasmon resonance (SPR). We developed an SPR assay whereby increasing amounts of TR2 peptide were added to RAD51 NPFs that had been assembled on biotinylated DNA coupled to a streptavidin chip (Supplementary Fig. 3A, Supplementary Table 1). […] We used the same SPR assay to assess the effect of the mutations on the ability of BRC4 to disrupt an established filament (Supplementary Fig. 4A, Supplementary Table 1).
All SPR experiments were performed using a Biacore T200 instrument and an S-series SA (Streptavidin) sensor chip. A single chip was used to immobilise biotinylated single- and double-stranded DNA in buffer: 25 mM HEPES pH 7.4, 100 mM NaCl, 1 mM EDTA. ssDNA and dsDNA were immobilised in different channels to a signal of 120 RU and 250 RU, respectively. […]
For the BRCA2 TR2 titration series, blank-subtracted sensorgrams were used to extract the maximum response accumulated after each TR2 injection. TR2 response accumulation was corrected to account for differences in RAD51 filament formation between runs, by multiplying the maximum response by a scale factor calculated as the ratio between mean RAD51 filament accumulation on each DNA substrate and the mean RAD51 accumulated for each mutant for each triplicate. […]

## DDQKNCKKRRALDFLSRLPLPPPVSPICTFVSPAAQKAFQPPRSCGTKY [TR2, BRCA2 TR2 peptide spanning amino acids 3260 to 3308]
Biacore T200, streptavidin chip, biotinylated ss- or dsDNA, CMA buffer pH 7.4, 1 μM RAD51, TR2 0.1-15 μM, 120 s
  TR2 binding by SPR relative to wild-type: clear reduction in TR2 binding
ssDNA compared with dsDNA
  impact of mutation on TR2 binding by SPR, ssDNA versus dsDNA: stronger for NPFs formed on ssDNA
